According to ChEMBL document CHEMBL1201862, “PubChem BioAssay data set” (2004):
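Dose response: 5 concentrations. Exposure: 48 h. Format: 96-well plates. Endpoint: linear interpolation; highest concentration if not reached. GI50 marks 50% less growth.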 Activity calls are given as the source filed them. Rule as the data show it: active = GI50 up to about 1.1 µM and inactive = higher.

How the values were obtained:
Experiment in all cases: growth of human tumour cells (NCI), 48 h
[1] = tested on: Malme-3M
[2] = tested on: NCI-H460
[3] = tested on: Hs-578T
[4] = tested on: OVCAR-3
[5] = tested on: HCT-15
[6] = tested on: NCI-H23
[7] = tested on: HOP-92
[8] = tested on: MDA-N
[9] = tested on: OVCAR-8
[10] = tested on: COLO 205
[11] = tested on: UACC-257
[12] = tested on: BT-549
[13] = tested on: A549
[14] = tested on: SK-MEL-5
[15] = tested on: UACC-62
[16] = tested on: NCI-H522
[17] = tested on: U-251
[18] = tested on: UO-31
[19] = tested on: MOLT-4
[20] = tested on: SNB-75

Measured: GI50

N=C(N)N/N=C(\c1ccc(F)cc1)c1ccc(C(F)(F)F)cc1
0.294 µM: [5]
inactive: [7] 1.46 µM | [11] 1.16 µM | [20] 1.75 µM
active: [1] 0.851 µM | [2] 0.332 µM | [3] 0.36 µM | [4] 0.33 µM | [6] 0.382 µM | [8] 0.0748 µM | [9] 0.376 µM | [10] 0.294 µM | [12] 0.593 µM | [13] 0.412 µM | [14] 0.466 µM | [15] 0.282 µM | [16] 0.135 µM | [17] 0.473 µM | [18] 0.53 µM | [19] 0.358 µM

COc1cc(C)cc2c(-c3c(O)cc(O)c4c3C[C@H](C)N[C@H]4C)cc(-c3cc(-c4c(O)cc(O)c5c4C[C@H](C)N[C@H]5C)c4cc(C)cc(OC)c4c3O)c(O)c12
> 100 µM: [5]
inactive: [1] > 100 µM | [2] 75.3 µM | [3] > 100 µM | [4] > 100 µM | [6] > 100 µM | [7] > 100 µM | [8] 52 µM | [9] > 100 µM | [10] > 100 µM | [11] > 100 µM | [12] > 100 µM | [13] > 100 µM | [14] > 100 µM | [15] > 100 µM | [16] > 100 µM | [17] > 100 µM | [18] > 100 µM | [19] > 100 µM | [20] > 100 µM

OB(O)c1ccccc1C#Cc1ccccc1B(O)O
20.9 µM: [5]
active: [11] 0.55 µM
inactive: [1] 17.1 µM | [2] 14.4 µM | [3] 14.6 µM | [4] 17.1 µM | [6] 24 µM | [7] 23.3 µM | [8] 21.2 µM | [9] 22.6 µM | [10] 16.2 µM | [12] 12.2 µM | [13] 18.5 µM | [14] 14.8 µM | [15] 14.5 µM | [16] 14.6 µM | [17] 19.2 µM | [18] 20.3 µM | [19] 40.5 µM | [20] 19 µM

C=C1C(=O)O[C@@H]2[C@H]1C[C@@H](O)[C@H](C)[C@@](O)(C(=O)/C=C/C)[C@H]2OC(=O)C(C)CC (stereo not given in full)
2.44 µM: [5]
inactive: [1] 2 µM | [2] 28.8 µM | [3] 2.72 µM | [4] 3.26 µM | [6] 5.31 µM | [7] 3.21 µM | [8] 3.08 µM | [9] 2.22 µM | [10] 1.75 µM | [11] 3.1 µM | [12] 5.45 µM | [13] 15.2 µM | [14] 7.28 µM | [15] 15.5 µM | [16] 1.26 µM | [17] 11.2 µM | [18] 1.82 µM | [19] 2.44 µM | [20] 22.6 µM

CCCCCCCCCCCCCCCCOP(=O)(O)OP(=O)(O)OCC1OC(n2cnc3c(N)ncnc32)C(O)C1O (stereo not given)
inactive: [1] 43.9 µM | [2] 36.1 µM | [3] 43.8 µM | [4] > 100 µM | [6] 87.1 µM | [7] 19.1 µM | [8] 75.9 µM | [9] 39.8 µM | [10] > 100 µM | [11] > 100 µM | [12] 18.7 µM | [13] > 100 µM | [14] > 100 µM | [15] 58.7 µM | [16] 19.9 µM | [17] 46 µM | [18] 60.5 µM | [19] 23.5 µM | [20] 24.4 µM
> 100 µM: [5]
